Source: article PMC12591484 (PLOS One, 2025)
Marks after values point to notes of the source that are not given here.

Key:
Assay in all cases: Drug protection from pCMBS modification (SCAMP)
Type in all cases: cell-based
Set-up in all cases: key: +: SCAMP is Substituted Cysteine Modification and Protection and is positive when adding anesthetic to cysteine modifier significantly reduces persistent post-exposure effects due to covalent modification; -: Negative results are indicated by “–“ symbols
[1] = target: T1, α1β3γ2S301C GABAA receptors (Homo sapiens, UniProt P14867+P18507+P28472, S340C); details: results of this study (*)
T1 construct: expressed in transfected cells; host or cells: Xenopus oocytes injected with capped mRNAs mixed 1α:1β:5γ
T1 sequence (P14867 28-456): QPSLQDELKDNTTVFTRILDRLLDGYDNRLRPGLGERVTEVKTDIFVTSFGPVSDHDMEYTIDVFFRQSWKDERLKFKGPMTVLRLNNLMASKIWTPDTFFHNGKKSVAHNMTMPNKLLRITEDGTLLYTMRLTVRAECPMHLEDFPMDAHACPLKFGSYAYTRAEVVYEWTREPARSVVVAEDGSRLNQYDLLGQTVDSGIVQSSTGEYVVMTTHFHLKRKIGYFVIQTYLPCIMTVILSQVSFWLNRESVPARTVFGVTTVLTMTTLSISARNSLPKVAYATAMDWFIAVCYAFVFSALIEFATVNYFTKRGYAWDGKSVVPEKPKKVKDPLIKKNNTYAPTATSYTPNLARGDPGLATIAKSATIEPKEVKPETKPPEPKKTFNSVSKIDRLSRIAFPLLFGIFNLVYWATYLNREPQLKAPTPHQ
T1 sequence (P28472 26-473): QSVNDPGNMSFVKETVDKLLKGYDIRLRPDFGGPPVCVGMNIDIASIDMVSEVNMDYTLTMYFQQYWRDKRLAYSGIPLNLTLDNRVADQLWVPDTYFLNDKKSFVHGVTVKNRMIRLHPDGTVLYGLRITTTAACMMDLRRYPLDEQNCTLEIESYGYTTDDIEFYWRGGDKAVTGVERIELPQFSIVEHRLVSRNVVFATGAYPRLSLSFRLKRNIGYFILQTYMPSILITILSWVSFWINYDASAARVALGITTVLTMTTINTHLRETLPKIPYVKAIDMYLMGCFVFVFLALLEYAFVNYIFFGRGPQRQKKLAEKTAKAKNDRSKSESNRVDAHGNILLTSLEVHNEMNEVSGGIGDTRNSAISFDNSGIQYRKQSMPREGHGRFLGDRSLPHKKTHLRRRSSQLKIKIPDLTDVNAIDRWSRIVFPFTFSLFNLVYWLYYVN
T1 sequence (P18507 40-475 S340C): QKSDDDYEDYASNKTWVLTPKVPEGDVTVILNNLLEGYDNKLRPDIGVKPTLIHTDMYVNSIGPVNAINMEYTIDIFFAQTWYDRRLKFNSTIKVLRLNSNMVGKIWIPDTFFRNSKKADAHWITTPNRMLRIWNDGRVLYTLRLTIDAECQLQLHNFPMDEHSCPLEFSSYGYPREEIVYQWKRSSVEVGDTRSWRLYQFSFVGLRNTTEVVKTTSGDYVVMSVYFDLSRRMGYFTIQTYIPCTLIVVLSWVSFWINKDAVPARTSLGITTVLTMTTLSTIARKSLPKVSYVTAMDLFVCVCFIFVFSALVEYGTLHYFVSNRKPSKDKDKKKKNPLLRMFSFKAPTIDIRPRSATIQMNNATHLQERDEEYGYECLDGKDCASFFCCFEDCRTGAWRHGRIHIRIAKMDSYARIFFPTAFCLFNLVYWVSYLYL
Experimental: (§1) Experiments were performed in ND-96 buffer at room temperature (20–22°C). Oocytes were placed in a low-volume (30µl) flow chamber and impaled with borosilicate microelectrodes filled with 3M KCl (resistance 0.5–3 MΩ) and voltage-clamped at −50 mV (model OC-725C; Warner Instruments, Hamden, CT, USA). Superfusate solutions in ND-96 were delivered at 2 ml/min from glass syringe reservoirs via computer-controlled valves (VC-8; Warner Instruments), a micro-manifold (ALA-VM8; ALA Scientific Instruments, Farmingdale, NY, USA), and PTFE tubing. Currents were digitized at 200 Hz on a computer running ClampEx v8.0 software (Molecular Devices, San Jose, CA, USA). Digitized traces were filtered with a 10-Hz low-pass Bessel function, leak corrected and analyzed for peak amplitude off-line using Clampfit v8 software (Molecular Devices).
(§2) Drug protection from pCMBS modification was assessed under pCMBS exposure conditions that produced approximately half of the maximal modification ratio for each mutant receptor, and a least a value of 3. This approach balanced the magnitude of functional modification signals (smaller with less pCMBS exposure) against the challenge of using a reversibly bound ligand to competitively block an irreversible covalent cysteine-modifying reaction. […] Each oocyte was used in a single SCAMP experiment. […] Etomidate was used as a positive control for anesthetic protection in α1M236C and β3M286C mutants and as a negative control in α1S270C, α1A291C, β3L231C, γ2S301C, γ2I242C, and γ2L246C mutants. R-mTFD-MPAB was used as a positive control in α1S270C, α1A291C, β3L231C, and γ2LS301C mutants and as a negative control in α1M236C and β3M286C mutants. For each cysteine mutant and protective drug combination, five oocytes were studied.
(§3) Non-linear least squares fits and statistical analyses were performed in Prism 10.4.0. (GraphPad Software, San Diego, CA, USA). […] Protection (steric inhibition of pCMBS modification) was inferred when anesthetics produced significant reductions in modification ratios relative to control (no anesthetic) values. The statistical significance threshold was p < 0.05.

[2] = target: T2, α1β3M286Cγ2L GABAA receptors (Homo sapiens, UniProt P14867+P18507+P28472, M311C); details: results of this study (*); etomidate cell also cites [16]
T2 construct: expressed in transfected cells; host or cells: Xenopus oocytes injected with capped mRNA, 1α:1β:5γ
T2 sequence (P28472 26-473 M311C, one chain of several): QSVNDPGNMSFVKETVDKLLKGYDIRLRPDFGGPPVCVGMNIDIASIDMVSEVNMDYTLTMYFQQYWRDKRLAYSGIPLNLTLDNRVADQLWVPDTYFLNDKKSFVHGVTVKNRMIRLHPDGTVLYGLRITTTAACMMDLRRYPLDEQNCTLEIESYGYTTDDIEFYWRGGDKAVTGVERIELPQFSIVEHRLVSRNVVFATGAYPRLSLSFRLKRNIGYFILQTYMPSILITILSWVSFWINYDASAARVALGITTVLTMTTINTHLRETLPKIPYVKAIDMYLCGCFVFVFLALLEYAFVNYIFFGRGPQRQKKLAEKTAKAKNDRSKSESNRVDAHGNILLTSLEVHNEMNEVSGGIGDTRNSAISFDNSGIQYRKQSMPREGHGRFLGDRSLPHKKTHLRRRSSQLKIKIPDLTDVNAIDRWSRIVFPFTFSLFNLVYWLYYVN
T2 sequence (P18507 40-475, one chain of several): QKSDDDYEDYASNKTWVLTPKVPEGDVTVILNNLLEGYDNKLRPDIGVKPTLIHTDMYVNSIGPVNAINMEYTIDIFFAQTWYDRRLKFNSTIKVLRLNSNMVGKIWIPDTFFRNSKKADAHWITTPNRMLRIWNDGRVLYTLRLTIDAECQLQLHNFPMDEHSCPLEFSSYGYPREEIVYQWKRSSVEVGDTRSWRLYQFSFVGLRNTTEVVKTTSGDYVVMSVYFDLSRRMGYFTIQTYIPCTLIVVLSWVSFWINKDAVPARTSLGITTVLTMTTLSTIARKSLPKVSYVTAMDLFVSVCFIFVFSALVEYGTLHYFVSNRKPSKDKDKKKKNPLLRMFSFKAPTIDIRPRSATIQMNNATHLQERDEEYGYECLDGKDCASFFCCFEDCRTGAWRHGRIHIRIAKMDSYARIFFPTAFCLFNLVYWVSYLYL
Experimental: as §1, §2, §3

[3] = target: T3, α1β3γ2L246C GABAA receptors (Homo sapiens, UniProt P14867+P18507+P28472, L285C); details: results of this study (*); etomidate cell also cites [9]
T3 construct: expressed in transfected cells; host or cells: Xenopus oocytes injected with capped mRNAs mixed 1α:1β:5γ
T3 sequence (P18507 40-475 L285C, one chain of several): as the sequence (P18507 40-475, one chain of several) above, with L246C counted along it
Experimental: as §1, §2, §3

Compound: C=CCC1(c2cccc(C3(C(F)(F)F)N=N3)c2)C(=O)NC(=O)N(C)C1=O (stereo not drawn) [R-mTFD-MPAB, R-5-allyl-1-methyl-5-(m-trifluoromethyl-diazirynylphenyl) barbituric acid]
- SCAMP result, γ2+ (M2, M3) S301 [1]: +*

Compound: CCOC(=O)c1cncn1[C@H](C)c1ccccc1 [etomidate, R-etomidate]
- SCAMP result, β3+ (M2, M3) M286 [2]: +^[16], *

Compound: CC(C)c1cc(C2(C(F)(F)F)N=N2)cc(C(C)C)c1CO [pTFD-di-iPr-BnOH]
- SCAMP result, γ2– (M1) L246 [3]: +*
